Values joined by “and” are separate entries in the source; they are usually repeats but may differ in a detail not shown here. Equal values may be shown once.
Tests used:
[1] = system: Molt-4 cells; test: Chemotaxis assay of Molt-4 cells towards TECK; assay type: cell-based; conditions: Homo sapiens; Molt-4 cells in HBSS buffer with 0.1% BSA; TECK at EC80
Experimental: Molt-4 cells were harvested and re-suspended in HBSS buffer with 0.1% BSA or in 100% human serum. Cell suspensions were mixed with compound solutions for 10 min and then seeded onto the upper chamber of the ChemoTX chemotaxis plates with 5 μm pore size polycarbonate membrane from NeuroProbe (Gaithersburg, Md.). EC80 concentration of TECK was applied in the bottom chamber. After 2 hours of incubation at 37° C., the assay was terminated by removing the upper chamber. The cells migrated into the bottom chamber were quantified with CyQUANT solution from Invitrogen (Grand Island, N.Y.).

[2] = molecular target: T1, CCR9 receptor (Homo sapiens, UniProt P51686); test: Calcium mobilization (Ca FLIPR) assay, antagonist mode vs TECK; assay type: cell-based; conditions: for LipE: LipE = pIC50-clogD; for IC50: cells expressing CCR9, TECK at EC80 0.01 uM, read-out: CCR9 Ca2+ IC50
T1 sequence (P51686 1-369): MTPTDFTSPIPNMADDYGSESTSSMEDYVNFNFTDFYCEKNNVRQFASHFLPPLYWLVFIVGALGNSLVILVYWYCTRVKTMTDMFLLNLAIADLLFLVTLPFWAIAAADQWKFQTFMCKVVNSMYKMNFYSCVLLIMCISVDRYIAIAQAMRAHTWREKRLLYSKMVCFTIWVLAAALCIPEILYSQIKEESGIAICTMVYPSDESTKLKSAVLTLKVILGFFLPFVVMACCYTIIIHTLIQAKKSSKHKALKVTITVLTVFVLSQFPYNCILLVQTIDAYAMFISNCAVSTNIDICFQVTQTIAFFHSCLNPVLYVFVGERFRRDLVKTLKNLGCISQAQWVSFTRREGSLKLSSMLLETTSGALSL
Experimental: Calcium Mobilization Assay:
Cells expressing CCR9 receptor (MultiSpan, Hayward, Calif.) were seeded in 384-well plates. Ca^2+ assays were conducted after overnight culture in the plates according to the manufacturer's protocol using Screen Quest™ Fluo-8 no wash kit (AAT Bioquest, Sunnyvale, Calif.). Dye loading buffer was added to the cells and incubated for 45 minutes at 37° C. followed by 15 minutes incubation at room temperature. Compounds in the presence of 0.1% DMSO were applied to the cells during calcium flux measurement. Calcium flux was monitored for 90 seconds with compound application after 10 seconds. For antagonist mode, cells were preincubated with the compound at room temperature for 10 minutes before the application of the control agonist TECK (Preprotech, Rocky Hill, N.J.) at EC80 concentration of 0.01 uM obtained from dose-response curves of control agonist.

[3] = pH-solubility (high-throughput, buffers); assay type: physicochemical; conditions: for Sol. pH 4: 1000 ug compound in 1 mL pH 4 buffer; for Sol. pH 7: 1000 ug compound in 1 mL pH 7 buffer; for Sol. pH 9: 1000 ug compound in 1 mL pH 9 buffer
Experimental: Solubility of representative acidic triazoles was measured in 3 buffer systems (pH 4, 7.4 and 9) using an in-house high-throughput solubility method. A stock solution of test article was prepared in DMA (20 mg/ml) and spiked into each buffer system (20× dilution) to target 1 mg/ml concentration. The samples were vortexed briefly and equilibrated for 24 hr at RT. Samples were then filtered using 0.22u PVDF membrane filters and analyzed for drug concentration using HPLC.

[4] = Human liver microsome clearance; assay type: in vitro ADME; conditions: second value of RLM/HLM cell
[5] = Rat liver microsome clearance; assay type: in vitro ADME; conditions: first value of RLM/HLM cell
Experimental: Microsomal In-Vitro Clearance:
The test articles (2 μM) were incubated for one hour in 1 mg/mL rat hepatic microsomes with 2 mM NADPH at 37° C. with aliquots removed at t=0, 15, 30 and 60 minutes. Incubations were terminated at the specified times by protein precipitation, and samples were centrifuged. Resultant supernants were analyzed by LC-MS/MS for the amount of incubated compound remaining, and the half life (t1/2) and intrinsic microsomal clearance rate (CLint) of each compound was calculated.

Structure (SMILES)	IC50 [1] [nM]	LipE [2]	IC50 [2] [nM]	Sol. pH 4 [3]	Sol. pH 7 [3]	Sol. pH 9 [3]	HLM CL (human liver microsome hepatic clearance) [4]	RLM CL (rat liver microsome hepatic clearance) [5] [mL/min/kg]
CCc1nc2nc(C)nn2c(O)c1Cc1ccc(C(C)(C)C)cc1 [Compound 13]	130	4.4	19	–	–	–	–	–
Cc1c(Cc2ccc(C(C)(C)C)cc2)c(=O)n2nc(C(F)(F)F)nc2n1C [Compound 4]	–	–	> 20000	–	–	–	–	–
Cc1c(Cc2ccc(C(C)(C)C)cc2)c(O)nc2ncnn12 [Compound 3]	–	–	820	–	–	–	–	–
CCc1nc2n[nH]c(=O)n2c(O)c1Cc1ccc(C(C)(C)C)cc1 [Compound 8]	230	5.5	28	79 ug/mL	117 ug/mL	914 ug/mL	4 mL/min/kg	39
CCc1nc2ncnn2c(O)c1Cc1ccc(C(C)(C)COC)cc1 [Compound 36]	60	5.9	13	62 ug/mL	> 1000 ug/mL	> 1000 ug/mL	20 mL/min/kg	49
CCOc1nc2nc(CC)c(Cc3ccc(C(C)(C)C)cc3)c(O)n2n1 [Compound 19]	150	4.2	8	79 ug/mL	117 ug/mL	914 ug/mL	11 mL/min/kg	16
Cc1nc2cc(C(F)(F)F)nn2c(O)c1Cc1ccc(C(C)(C)C)cc1 [Compound 7]	980	–	110	0 ug/mL	0 ug/mL	5 ug/mL	18 mL/min/kg	42
CC(C)Cc1nc2ncnn2c(O)c1Cc1ccc(C(C)(C)C)cc1 [Compound 24]	270	3.9	27	–	–	–	12 mL/min/kg	43
CC(C)(C)c1ccc(Cc2c(C3CCOC3)nc3ncnn3c2O)cc1 (centres unmarked) [Compound 29]	205	–	17	–	–	–	8 mL/min/kg	45
COc1c(Cc2ccc(C(C)(C)C)cc2)c(C)nc2nc(C(F)(F)F)nn12 [Compound 5]	–	–	3700	–	–	–	–	–
CC(C)(C)c1ccc(Cc2c(-c3ccoc3)nc3ncnn3c2O)cc1 [Compound 30]	104	5.3	5	–	–	–	–	–
CCc1nc2nc(CO)nn2c(O)c1Cc1ccc(C(C)(C)C)cc1 [Compound 20]	200	5.5	10	–	–	–	8 mL/min/kg	43
CCOc1nc2ncnn2c(O)c1Cc1ccc(C(C)(C)C)cc1 [Compound 25]	92	4.8	23	–	–	–	11 mL/min/kg	52
CC(C)(C)c1ccc(Cc2c(C3CCCC3)nc3ncnn3c2O)cc1 [Compound 28]	145	–	15	–	–	–	11 mL/min/kg	47
Cc1nc2nc(C(F)(F)F)nn2c(O)c1Cc1ccc(C(C)(C)C)cc1 [Compound 2]	–	2.6	410	4 ug/mL	565 ug/mL	1035 ug/mL and > 1000 ug/mL	19 mL/min/kg	54
CCc1nc2nc(C(=O)N(C)C)nn2c(O)c1Cc1ccc(C(C)(C)C)cc1 [Compound 18]	520	–	12	0 ug/mL	0 ug/mL	5 ug/mL	18 mL/min/kg	42

Structure (SMILES)	IC50 [1] [nM]	LipE [2]	IC50 [2] [nM]	Sol. pH 4 [3]	Sol. pH 7 [3]	Sol. pH 9 [3]	HLM CL (human liver microsome hepatic clearance) [4]	RLM CL (rat liver microsome hepatic clearance) [5] [mL/min/kg]
CCc1nc2nc(CN(C)C)nn2c(O)c1Cc1ccc(C(C)(C)C)cc1 [Compound 16]	–	–	290	–	–	–	–	–
CN(C)c1nc2ncnn2c(O)c1Cc1ccc(C(C)(C)C)cc1 [Compound 32]	–	–	> 1000	–	–	–	–	–
CC(C)(C)c1ccc(Cc2c(O)nc3ncnn3c2O)cc1 [Compound 31]	–	–	> 10000	–	–	–	–	–
Cc1nc2nc(C(F)(F)F)nn2c(O)c1Cc1ccc(C2(F)CCOCC2)cc1 [Compound 34]	–	3.7	340	–	–	–	17 mL/min/kg	43
CCc1nc2ncnn2c(O)c1Cc1ccc(C(C)(C)C)cc1 [Compound 21]	88	4.8	21	–	–	–	12 mL/min/kg	51
CCc1nc2nc(COC)nn2c(O)c1Cc1ccc(C(C)(C)C)cc1 [Compound 17]	190	–	7	–	–	–	13 mL/min/kg	36
CCc1nc2ncnn2c(O)c1Cc1ccc(C2(C)CCOCC2)cc1 [Compound 35]	380	5.7	22	>1000/>1000/>1000 ug/mL	>1000/>1000/>1000 ug/mL	>1000/>1000/>1000 ug/mL	17 mL/min/kg	37
CCc1nc2nc(N)nn2c(O)c1Cc1ccc(C(C)(C)C)cc1 [Compound 14]	50	5.9	2	2 ug/mL	7 ug/mL	358 ug/mL	6 mL/min/kg	39
CCc1nc2c[nH]nc2c(O)c1Cc1ccc(C(C)(C)C)cc1 [Compound 10]	–	–	> 10000	–	–	–	–	–
CCc1nc2nc(N(C)C)nn2c(O)c1Cc1ccc(C(C)(C)C)cc1 [Compound 15]	380	4.1	33	–	–	–	12 mL/min/kg	43
Cc1nc2nc(C(F)(F)F)nn2c(O)c1Cc1ccc(N2CC(C)OC(C)C2)c(F)c1 (centres unmarked) [Compound 33]	–	3	1900	79 ug/mL	> 1000 ug/mL	> 1000 ug/mL	—/17 mL/min/kg	–
CCCc1nc2ncnn2c(O)c1Cc1ccc(C(C)(C)C)cc1 [Compound 22]	55	5.0	4	–	–	–	–	–
Cc1cn2c(O)c(Cc3ccc(C(C)(C)C)cc3)c(C)nc2n1 [Compound 9]	–	–	> 10000	–	–	–	–	–
CC(C)c1nc2ncnn2c(O)c1Cc1ccc(C(C)(C)C)cc1 [Compound 23]	340	4.0	52	2 ug/mL	7 ug/mL	358 ug/mL	13 mL/min/kg	44
Cc1nc2nc(C)c(Cc3ccc(C(C)(C)C)cc3)c(O)n2n1 [Compound 12]	–	3.9	220	–	–	–	11 mL/min/kg	50
